The target of assay [1] is T1, menin/MLL (Gal4-Menin and MLL1-46-VP16) in HEK293 cells (Homo sapiens, UniProt O00255).
T1 construct: expressed in transfected cells; host or cells: HEK293 (ATCC)
The assay can be described thus: Mammalian cellular two-hybrid assay in HEK293 cells (Assay 2, cell assay). It counts as cell-based. The settings on record: Gal4-Menin/MLL1-46-VP16 two-hybrid, NanoLuc luciferase reporter, 16-18 h. As for the experimental part: Potencies of inhibitor compounds against menin/MLL were tested in a mammalian cellular two-hybrid assay system. HEK293 cells (American Type Culture Collection (ATCC); Manassas, Va.) were co-transfected with three plasmids: one encoding Gal4-Menin (200 ng per 10^6 cells), another encoding MLL1-46-VP16 (100 ng per 10^6 cells), and a reporter plasmid pNL3.3-4×UAS (500 ng per 10^6 cells) encoding secreted NanoLuc® luciferase (Promega) with the upstream 4×UAS repeats for Gal4 binding. Transfection was performed in Opti-MEM® media using Lipofectamine® LTX with Plus™ Reagent (ThermoFisher Scientific) according to manufacturer's protocol. Cells were incubated with transfection reagents at 37° C. 5% CO2 for 5-6 h, harvested by trypsinization and centrifugation at 300×g for 5 min and resuspended in Gibco® DMEM media (phenol red-free, no antibiotics) containing 10% delipidated fetal bovine serum (FBS) (ThermoFisher Scientific). Concentration of cells in the media was adjusted to 3.5×10^5 cells/ml, and 100 μl of the cell suspension was dispensed into each well of 96-well Costar™ black clear bottom cell culture plates (Fisher Scientific). Tested compounds were added as 100 μL of 2× solutions in the media. Final concentration of DMSO was 0.1% in all wells. The cells were incubated with tested compounds at 37° C. 5% CO2 for 16-18 h. At the end of the incubation, 40 μL of the conditioned media from each well was transferred into each well of 96-well Costar™ black half-area plates (Fisher Scientific), to which 40 μl of 2× reconstituted NanoGlo® luciferase assay reagent (Promega) was added and thoroughly mixed on a microshaker for 2-3 min. Remaining media in the culture plates was removed by emptying the wells and blotting the plates on filter paper. The cells were lysed with 1× CellTiter-Glo® Luminescent Cell Viability Assay reagent (Promega) for assessing toxicity of the tested compounds. Both, Nano-Glo® and CellTiter-Glo® luminescence intensities were measured on EnVision® multilabel plate reader (PerkinElmer). Percent inhibition values were calculated based on Nano-Glo® luciferase activity observed with the tested compounds vs. DMSO control and commercially available menin inhibitor MI-2-2 (4-(4-(5,5-Dimethyl-4,5-dihydrothiazol-2-yl)piperazin-1-yl)-6-(2,2,2-trifluoroethyl)thieno[2,3-d]pyrimidine) (EMD Millipore, Cat. No. 444825) incubated with cells at 5 μM. These percent inhibition values were regressed against compound concentrations in the assay using non-linear 4-parameter logit curve fitting (XLFit, IDBS). Half maximal inhibitory concentrations (IC50) were calculated as the parameters of the fit corresponding to the inflection points on semi-logarithmic dose-response curves.
A general note: In a reporter assay the amount or activity of a reporter protein is the signal.

Assay [2] concerns the target T2, wild-type menin / MLL-AF9 fusion protein (Homo sapiens, UniProt O00255).
T2 construct: made in house; host or cells: E. coli (menin); HEK293 cleared lysate (MLL-AF9-FLAG)
T2 sequence (O00255 1-610): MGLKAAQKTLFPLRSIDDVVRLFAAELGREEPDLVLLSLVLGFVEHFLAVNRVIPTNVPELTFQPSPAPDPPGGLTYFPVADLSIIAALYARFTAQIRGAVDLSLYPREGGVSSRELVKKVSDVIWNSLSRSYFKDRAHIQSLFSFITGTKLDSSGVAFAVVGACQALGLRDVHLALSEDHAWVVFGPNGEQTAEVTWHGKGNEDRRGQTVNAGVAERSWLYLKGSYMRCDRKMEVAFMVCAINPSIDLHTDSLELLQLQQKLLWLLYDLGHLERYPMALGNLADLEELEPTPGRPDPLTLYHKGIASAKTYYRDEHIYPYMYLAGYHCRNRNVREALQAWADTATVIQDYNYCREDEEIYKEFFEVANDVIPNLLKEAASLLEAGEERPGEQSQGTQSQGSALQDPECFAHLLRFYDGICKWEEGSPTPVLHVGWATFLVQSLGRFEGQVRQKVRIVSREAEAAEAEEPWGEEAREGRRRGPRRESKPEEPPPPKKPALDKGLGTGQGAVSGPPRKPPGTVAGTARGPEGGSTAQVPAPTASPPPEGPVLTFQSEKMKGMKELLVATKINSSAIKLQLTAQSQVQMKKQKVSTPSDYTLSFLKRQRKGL
The assay is described as follows: AlphaLISA menin/MLL binding assay, wild-type menin (Assay 1). The settings on record: biotinylated wild-type menin 5 nM, MLL-AF9-FLAG lysate. The essentials:
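Biotinylated wild-type or mutated menin (5 nM, E. coli-expressed) was preincubated 30 min at RT with compound and HEK293 lysate containing MLL1-1,396–AF9 1-92–FLAG. Buffer was 50 mM Tris-HCl pH 7.4, 5% DMSO, 50 mM NaCl, 0.01% BSA, 1 mM DTT. Anti-FLAG acceptor and streptavidin donor beads (10 μg/mL each) were then added for 60 min. IC50 came from a four-parameter fit of the Alpha signal inhibition.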
In general terms: In Alpha technology, singlet oxygen from a donor bead excites a nearby acceptor bead.

T1 sequence (P04386 1-147 partner limits assumed, species assumed, one chain of several): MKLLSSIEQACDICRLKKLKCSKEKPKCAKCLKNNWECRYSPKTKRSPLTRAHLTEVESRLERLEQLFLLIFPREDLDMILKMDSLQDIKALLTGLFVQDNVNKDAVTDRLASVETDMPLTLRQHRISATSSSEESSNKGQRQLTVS

As usually defined, the IC50 is the concentration that gives 50% inhibition. As for `Cc1c(CN2CCC3(CCN(c4ncnc5sc(CC(F)(F)F)cc45)C3)C2)ccc2[nH]c(C#N)cc12` (racemic) [Example 30, 4-methyl-5-((7-(6-(2,2,2-trifluoroethyl)thieno[2,3-d]pyrimidin-4-yl)-2,7-diazaspiro[4.4]nonan-2-yl)methyl)-1H-indole-2-carbonitrile], the IC50 in assay [1] and in assay [2] was below 100 nM each time.
Regarding `Cc1c(CN2CCC3(CCN(c4ncnc5sc(CC(F)(F)F)cc45)C3)C2)ccc2[nH]c(C#N)cc12` (single isomer, unassigned) [Example 30a, 4-methyl-5-((7-(6-(2,2,2-trifluoroethyl)thieno[2,3-d]pyrimidin-4-yl)-2,7-diazaspiro[4.4]nonan-2-yl)methyl)-1H-indole-2-carbonitrile], the IC50 in assay [1] and in assay [2] was below 100 nM throughout.
Turning to `FC(F)(F)Cc1cc2c(N3CCC4(CC3)CN(Cc3ccccc3)C4)ncnc2s1` [Example 1, 4-(2-benzyl-2,7-diazaspiro[3.5]nonan-7-yl)-6-(2,2,2-trifluoroethyl) thieno[2,3-d]pyrimidine], the IC50 in assay [1] and in assay [2] was at least 1000 nM throughout.
In the case of `CC(C)CN1CC2(CCN(c3ncnc4sc(CC(F)(F)F)cc34)CC2)C1` [Example 2, 4-(2-isobutyl-2,7-diazaspiro[3.5]nonan-7-yl)-6-(2,2,2-trifluoroethyl)thieno[2,3-d]pyrimidine], the IC50 in assay [1] is at least 1000 nM; in assay [2] it was 100 to 1000 nM.
Regarding `CC(C)(C)CN1CC2(CCN(c3ncnc4sc(CC(F)(F)F)cc34)CC2)C1` [Example 18, 4-(2-neopentyl-2,7-diazaspiro[3.5]nonan-7-yl)-6-(2,2,2-trifluoroethyl)thieno[2,3-d]pyrimidine], the IC50 was at least 1000 nM in assay [1] and 100 to 1000 nM in assay [2].
Regarding `N#Cc1ccc2c(CN3CC4(CCN(c5ncnc6sc(CC(F)(F)F)cc56)CC4)C3)c[nH]c2c1` [Example 20, 3-((7-(6-(2,2,2-trifluoroethyl)thieno[2,3-d]pyrimidin-4-yl)-2,7-diazaspiro[3.5]nonan-2-yl)methyl)-1H-indole-6-carbonitrile], the figures for the IC50 in assay [1] and in assay [2] were at least 1000 nM and 100 to 1000 nM, respectively.
On to `CCC(C)CN1CC2(CCN(c3ncnc4sc(CC(F)(F)F)cc34)CC2)C1` (centres unmarked) [Example 22, 4-(2-(2-methylbutyl)-2,7-diazaspiro[3.5]nonan-7-yl)-6-(2,2,2-trifluoroethyl)thieno[2,3-d]pyrimidine], for which the IC50 is at least 1000 nM in assay [1] and 100 to 1000 nM in assay [2].
In the case of `FC(F)(F)Cc1cc2c(N3CCC4(CCN(Cc5ccccc5)C4)CC3)ncnc2s1` [Example 23, 4-(2-benzyl-2,8-diazaspiro[4.5]decan-8-yl)-6-(2,2,2-trifluoroethyl)thieno[2,3-d]pyrimidine], the 50% inhibitory concentration (IC50) in assay [1] is at least 1000 nM; in assay [2], 100 to 1000 nM.
For `CC(C)CN1CCC2(CCN(c3ncnc4sc(CC(F)(F)F)cc34)CC2)C1` [Example 24, 4-(2-isobutyl-2,8-diazaspiro[4.5]decan-8-yl)-6-(2,2,2-trifluoroethyl)thieno[2,3-d]pyrimidine] the same measures were at least 1000 nM and 100 to 1000 nM.
For `Cc1c(CN2CCC3(CCN(c4ncnc5sc(CC(F)(F)F)cc45)CC3)C2)ccc2[nH]c(C#N)cc12` [Example 26, 4-methyl-5-((8-(6-(2,2,2-trifluoroethyl)thieno[2,3-d]pyrimidin-4-yl)-2,8-diazaspiro[4.5]decan-2-yl)methyl)-1H-indole-2-carbonitrile], the values for the IC50 in assay [1] and in assay [2] were 100 to 1000 nM and below 100 nM, respectively.
In the same order, the values of `FC(F)(F)Cc1cc2c(N3CCC4(CCN(Cc5ccc6[nH]ccc6c5)C4)C3)ncnc2s1` (centres unmarked) [Example 28, 4-(7-((1H-indol-5-yl)methyl)-2,7-diazaspiro[4.4]nonan-2-yl)-6-(2,2,2-trifluoroethyl)thieno[2,3-d]pyrimidine] are 100 to 1000 nM and below 100 nM.
For `FC(F)(F)Cc1cc2c(N3CCC4(CCN(Cc5ccc6cc[nH]c6c5)C4)C3)ncnc2s1` (centres unmarked) [Example 29, 4-(7-((1H-indol-6-yl)methyl)-2,7-diazaspiro[4.4]nonan-2-yl)-6-(2,2,2-trifluoroethyl)thieno[2,3-d]pyrimidine] the same measures were 100 to 1000 nM and below 100 nM.
In the same order, the values of `N#Cc1ccc(CN2CCC3(CCN(c4ncnc5sc(CC(F)(F)F)cc45)C3)C2)cc1` (centres unmarked) [Example 33, 4-((7-(6-(2,2,2-trifluoroethyl)thieno[2,3-d]pyrimidin-4-yl)-2,7-diazaspiro[4.4]nonan-2-yl)methyl)benzonitrile] are 100 to 1000 nM and below 100 nM.
Consider `CC(=O)Nc1ccc(CN2CCC3(CCN(c4ncnc5sc(CC(F)(F)F)cc45)C3)C2)cc1` (centres unmarked) [Example 34, N-(4-((7-(6-(2,2,2-trifluoroethyl)thieno[2,3-d]pyrimidin-4-yl)-2,7-diazaspiro[4.4]nonan-2-yl)methyl)phenyl)acetamide], for which the values for the IC50 in assay [1] and in assay [2] were 100 to 1000 nM and below 100 nM, respectively.
For `CS(=O)(=O)Nc1ccc(CN2CCC3(CCN(c4ncnc5sc(CC(F)(F)F)cc45)C3)C2)cc1` (centres unmarked) [Example 38, N-(4-((7-(6-(2,2,2-trifluoroethyl)thieno[2,3-d]pyrimidin-4-yl)-2,7-diazaspiro[4.4]nonan-2-yl)methyl)phenyl)methanesulfonamide] the same measures were 100 to 1000 nM and below 100 nM.
In the same order, the values of `O=c1[nH]c2ccc(CN3CCC4(CCN(c5ncnc6sc(CC(F)(F)F)cc56)C4)C3)cc2[nH]1` (centres unmarked) [Example 39, 5-((7-(6-(2,2,2-trifluoroethyl)thieno[2,3-d]pyrimidin-4-yl)-2,7-diazaspiro[4.4]nonan-2-yl)methyl)-1H-benzo[d]imidazol-2(3H)-one] are below 100 nM and below 100 nM.
In the same order, the values of `O=c1[nH]c2ccc(CN3CCC4(CCN(c5ncnc6sc(CC(F)(F)F)cc56)C4)C3)cc2o1` (centres unmarked) [Example 40, 6-((7-(6-(2,2,2-trifluoroethyl)thieno[2,3-d]pyrimidin-4-yl)-2,7-diazaspiro[4.4]nonan-2-yl)methyl)benzo[d]oxazol-2(3H)-one] are 100 to 1000 nM and below 100 nM.
Turning to `Cn1c(=O)[nH]c2cc(CN3CCC4(CCN(c5ncnc6sc(CC(F)(F)F)cc56)C4)C3)ccc21` (centres unmarked) [Example 41, 1-methyl-5-((7-(6-(2,2,2-trifluoroethyl)thieno[2,3-d]pyrimidin-4-yl)-2,7-diazaspiro[4.4]nonan-2-yl)methyl)-1H-benzoldlimidazol-2(3H)-one], the IC50 in assay [1] and in assay [2] was below 100 nM each time.
On to `CC(=O)Nc1ccc(CN2CCC3(CCN(c4ncnc5sc(CC(F)(F)F)cc45)C3)C2)c(C)c1` (centres unmarked) [Example 42, N-(3-methyl-4-((7-(6-(2,2,2-trifluoroethyl)thieno[2,3-d]pyrimidin-4-yl)-2,7-diazaspiro[4.4]nonan-2-yl)methyl)phenyl)acetamide], for which the IC50 in assay [1] is 100 to 1000 nM; in assay [2], below 100 nM.

The values are drawn from patent US20190010167A1, “INHIBITORS OF THE MENIN-MLL INTERACTION” (Vitae Pharmaceuticals, Inc., priority 2015, published 2019).
